Patent US9987368B2, “Pharmaceutical composition comprising polypeptide” (SANTEN PHARMACEUTICAL CO., LTD., priority 2015, dated 2018)

Assays:
[1] = Depot formation evaluation test (1): gelatinizers in DMSO/water; format: physicochemical; conditions: solution of DMSO/water at the volume ratio (9:1)
Experimental: Depot (deposited mass) formations of various kinds of gelatinizers were examined.
Compositions 1 to 6 were prepared by blending each of various kinds of gelatinizers to a solvent of DMSO/water (volume ratio of 9:1) such that the gelatinizer is contained at 0.1% (w/v) (0.1% by mass of the gelatinizer is contained per 100 mL of the solution of DMSO/water). Then, calcium chloride dihydrate and magnesium chloride hexahydrate were dissolved in Dulbecco's phosphate buffered saline (−) (Product No. D-5652 manufactured by Sigma-Aldrich) to prepare Dulbecco's phosphate buffered saline (+). 0.005 mL of each of the compositions was added to 1 mL of the Dulbecco's phosphate buffered saline (+), and the formation of a depot was visually checked. The formation of a depot was evaluated in such a way that the depot is determined as formed if a mass formed of the composition deposited is observed.

[2] = Depot formation evaluation test (2): solvents of the polypeptide A; format: physicochemical
Experimental: Solvents of the polypeptide A were examined.
Compositions 2 to 6 and Comparative Examples 6 and 7 were prepared by adding 0.01 mL of an aqueous solution of the polypeptide A at 1% (w/v) (containing 1% by mass of the polypeptide A per 100 mL of water) to 0.09 mL of each of various solvents, followed by stirring. 0.005 mL of each of the compositions was administered to 1 mL of the Dulbecco's phosphate buffered saline (+), and the formation of a depot was visually checked.

[3] = Dissolution performance evaluation test; format: physicochemical; conditions: for Property: visually checked
Experimental: Drug dissolving abilities of various solutions were examined.
The compound represented by the above formula (2) (2-[[[2-[(hydroxyacetyl)amino]-4-pyridinyl]methyl]thio]-N-[4-(trifluoromethoxy)phenyl]-3-pyridinecarboxamide, hereinafter also referred to as the drug A; prepared in accordance with the method described in the specification of US Patent Application Publication No. 2007/0149574) was added to each solvent (total 1 mL) out of various solvents of DMSO (GAYLORD), PEG 400 (Nacalai Tesque), and water, and was stirred at room temperature (25° C.) overnight (for 8 hours). Then, the properties of the resultant solvents were visually checked.

[4] = tested on: VEGF-induced HUVEC proliferation; conditions: US 2007/0149574; cited from earlier work
cancer models in mice = conditions: US 2007/0149574; cited from earlier work
[5] = tested on: adjuvant arthritis models in rats; conditions: US 2007/0149574; cited from earlier work
[6] = tested on: choroidal neovascularization models in rats; conditions: US 2007/0149574; cited from earlier work

Compound | Depot formation [1] | Depot formation ([2]; DMSO, PEG 200, PEG 400, glycofurol and N-methylpyrrolidone used as the solvents) | Depot formation ([2]; ethanol and N,N-dimethylacetamide used as the solvents) | Property ([3]; Test 1: Drug A 20 mg in DMSO 0.9 mL + water 0.1 mL, stirred at room temperature (25° C.) overnight) | Property ([3]; Test 2: Drug A 60 mg in DMSO 0.9 mL + water 0.1 mL, stirred at 25° C. overnight) | Property ([3]; Test 3: Drug A 60 mg in water 1 mL, stirred at 25° C. overnight) | Property ([3]; Test 4: Drug A 25 mg in PEG 400 1 mL, stirred at 25° C. overnight) | Property ([3]; Test 5: Drug A 25 mg in PEG 400 0.9 mL + water 0.1 mL, stirred at 25° C. overnight) | Property ([3]; Test 6: Drug A 25 mg in PEG 400 0.8 mL + water 0.2 mL, stirred at 25° C. overnight) | Property ([3]; Test 7: Drug A 25 mg in water 1 mL, stirred at 25° C. overnight) | Dissolution of the drug in solution containing DMSO or PEG 400 ([3]; solution containing DMSO or PEG 400) | Dissolution of the drug in water ([3]; water) | cell proliferation inhibitory action [4] | tumor growth inhibitory action (cancer models in mice) | paw edema inhibitory action [5] | choroidal neovascularization inhibitory action [6]
Ac-(Arg-Ala-Asp-Ala)4-NH2 [polypeptide A] | formed a depot | formed a depot | did not form a depot |  |  |  |  |  |  |  |  |  |  |  |  | 
O=C(CO)Nc1cc(CSc2ncccc2C(=O)Nc2ccc(OC(F)(F)F)cc2)ccn1 [Drug A, 2-[[[2-[(hydroxyacetyl)amino]-4-pyridinyl]methyl]thio]-N-[4-(trifluoromethoxy)phenyl]-3-pyridinecarboxamide] |  |  |  | Solution | Solution | Suspension | Solution | Solution | Solution | Suspension | can dissolve the drug | cannot be dissolved in water | demonstrated a cell proliferation inhibitory action | demonstrated a tumor growth inhibitory action | demonstrated a paw edema inhibitory action | demonstrated a choroidal neovascularization inhibitory action
